From paper PMC6421297, “Novel Mouse Tauopathy Model for Repetitive Mild Traumatic Brain Injury: Evaluation of Long-Term Effects on Cognition and Biomarker Levels After Therapeutic Inhibition of Tau Phosphorylation” (Frontiers in Neurology, 2019)

Key:
[1] = system: tau phosphorylation at Thr231 and Ser202 in SH-SY5Y-(P301L) cells; format: cell-based; conditions: 6 h
Method: (§1) SH-SY5Y-P301L cells (gift from Prof. Fred Van Leuven, Department of Human Genetics, KU Leuven, Belgium) were cultured Dulbecco's Modified Eagle Medium (DMEM):Nutrient Mixture F-12 (DMEM/F-12, Gibco, c/o Invitrogen, Saint Aubin, France) containing 1% Penicillin-Streptomycin mixture (Gibco) and 10% fetal bovine serum (FBS, Gibco) in a humidified, 5% CO2 incubator at 37°C. Cells were split routinely once a week. Cells were seeded at a density of 1.5 x 10^6 cells/well in P60 well plates with 4 ml medium/well and exposed for 6 h to a range of ros concentrations (Figures 2–4) or to a few concentrations of various kinase inhibitors with different selectivities (Figure 3). At the end of the incubation cells were harvested for Western blotting. Cells were scraped in cold phosphate-buffered saline, centrifuged at 10,000 x g for 5 min at 4°C, and pellets were snap-frozen in liquid nitrogen. Experiments were repeated three or four times.
(§2) For Western blot analysis, cell pellets were lysed in homogenization buffer (25 mM MOPS, 15 mM EGTA, 15 mM MgCl2, 60 mM β-glycerophosphate, 15 mM p-nitrophenylphosphate, 2 mM dithiothreitol (DTT), 1 mM Na3VO4, 1 mM NaF, 1 mM disodium phenylphosphate, 1x protease inhibitor cocktail, 0.2% Nonidet P-40 substitute). Protein extracts were mixed (1:1 v/v) with sample buffer (2 × NuPAGE LDS sample buffer, 200 mM DTT) and 20 μg of total protein was loaded on NuPAGE 4–12% Bis-Tris protein gels. Electrophoresis was carried out at 70 V in MOPS buffer for 4 h. Rapid blot transfers were performed at 2.5A/25V for 7 min. […] P-tau and T-tau signals were first normalized to GAPDH from the same membranes, and then divided one by another to obtain the level of pS202 or pT231 relative to T-tau. Values are presented as mean±SEM of three or four independent experiments.

[2] = system: S202-Tau phosphorylation in SH-SY5Y-(P301L) cells; assay: Western blot of pS202-tau/T-tau in SH-SY5Y-(P301L) cells, roscovitine and/or LiCl, with coefficient of drug interaction; format: cell-based; conditions: 6 h; for tau phosphorylation (pS202-tau), individual treatment: single agent
Method: as §1, §2
For cell cultures and immunoblotting data the two-tailed unpaired t-test (Graphpad Prism) was used. Coefficients of drug interaction (CDI) were calculated as follows: CDI = AB/(A × B). According to the ratio pS202 tau/T-tau of each group, AB is the ratio of the combination groups to control group; A or B is the ratio of the single agent group to control group. […]

epileptic rats = system: epileptic rats; parameters: method as in PMID 28595035; conditions: cited from earlier work
mice following TBI = conditions: cited from earlier work

Structure (SMILES)	Inhibition of tau phosphorylation at Thr231 and Ser202 ([1]; 25, 50, and 100 μM)	reduction of tau phosphorylation by inhibitors to secondary kinase targets ([1]; 25, 50, and 100 μM)	further results
O=C(NC1CCNCC1)c1[nH]ncc1NC(=O)c1c(Cl)cccc1Cl [AT7519]	evident	–	–
CC[C@H](CO)Nc1nc(NCc2ccc(-c3ccccn3)cc2)c2ncn(C(C)C)c2n1 [CR8]	evident	–	–
NC(=O)c1ccc(-c2nc(-c3ccc4c(c3)OCCO4)c(-c3ccccn3)[nH]2)cc1 [D4476]	–	none of the inhibitors to secondary kinase targets reduced tau phosphorylation	–
COc1cc(OC)c(C=C2C(O)=Nc3ccccc32)c(OC)c1 [IC261]	–	–	activity at site pSer202 ([1]; 25, 50, and 100 μM): active
O=C1NC(Nc2ccccc2)=N/C1=C\c1ccc2c(c1)OCO2 [Leucettine 41]	–	none of the inhibitors to secondary kinase targets reduced tau phosphorylation	–
[Cl-].[Li+] [LiCl, lithium chloride]	–	–	dose-response of pS202-tau inhibition, LiCl alone ([2]; LiCl alone): no dose-response relationship; tau phosphorylation (pS202-tau), individual treatment [2]: slightly down-regulated; epilepsy-induced axonal impairment (epileptic rats): reversed axonal impairment
CC[C@@H](CO)Nc1nc(N(C)Cc2ccc(-c3ccccn3)cc2)c2ncn(C(C)C)c2n1 [N6-methyl-CR8]	not	–	cause of decreases in P-tau at the high dose ([1]; 100 μM): likely the result of drug-associated cell toxicity
CCC(CO)Nc1nc(N(C)Cc2ccccc2)c2ncn(C(C)C)c2n1 (centres unmarked) [N6-methyl-roscovitine]	not	–	–
COc1cccc(-c2cc(=O)c3ccccc3o2)c1N [PD098059]	–	none of the inhibitors to secondary kinase targets reduced tau phosphorylation	–
CC[C@H](CO)Nc1nc(NCc2ccccc2)c2ncn(C(C)C)c2n1 [Roscovitine, (R)-roscovitine]	evident	–	inhibition of Thr231 and Ser202 phosphorylation ([1]; range of ros concentrations): dose-dependent inhibition; inhibition of Ser202 phosphorylation, ros alone ([2]; ros alone): moderate and dose-dependent inhibition; tau phosphorylation (pS202-tau), individual treatment [2]: slightly down-regulated; epilepsy-induced axonal impairment (epileptic rats): reversed axonal impairment; cognitive deficits, spatial learning and memory after TBI (mice following TBI): attenuated cognitive deficits and improved spatial learning and memory
CCc1cnn2c(NCc3ccc[n+]([O-])c3)cc(N3CCCC[C@H]3CCO)nc12 [SCH727965]	evident	–	–
CC(C)(C)c1cnc(CSc2cnc(NC(=O)C3CCNCC3)s2)o1 [SNS-032, N-[5-[[[5-(1,1-dimethylethyl)-2-oxazolyl]methyl]thio]-2-thiazolyl]-4-piperidinecarboxamide]	evident	–	–
CCN1/C(=C/C(C)=O)Sc2ccc(OC)cc21 [TG003]	–	none of the inhibitors to secondary kinase targets reduced tau phosphorylation	–
N#CC(=C(/N)Sc1ccccc1N)/C(C#N)=C(/N)Sc1ccccc1N [UO126]	–	none of the inhibitors to secondary kinase targets reduced tau phosphorylation	–
COc1ccc2c(c1)[nH]c1c(C)nccc12 [harmine]	–	none of the inhibitors to secondary kinase targets reduced tau phosphorylation	–
